One molecule from ChEMBL document CHEMBL4417628, “Small molecule antagonists of dusp5 and methods of use” (2018) can be followed below.

Experiment [1] addresses T1, Dual specificity protein phosphatase 5 (Homo sapiens) (UniProt Q16690).
T1 sequence (whole entry): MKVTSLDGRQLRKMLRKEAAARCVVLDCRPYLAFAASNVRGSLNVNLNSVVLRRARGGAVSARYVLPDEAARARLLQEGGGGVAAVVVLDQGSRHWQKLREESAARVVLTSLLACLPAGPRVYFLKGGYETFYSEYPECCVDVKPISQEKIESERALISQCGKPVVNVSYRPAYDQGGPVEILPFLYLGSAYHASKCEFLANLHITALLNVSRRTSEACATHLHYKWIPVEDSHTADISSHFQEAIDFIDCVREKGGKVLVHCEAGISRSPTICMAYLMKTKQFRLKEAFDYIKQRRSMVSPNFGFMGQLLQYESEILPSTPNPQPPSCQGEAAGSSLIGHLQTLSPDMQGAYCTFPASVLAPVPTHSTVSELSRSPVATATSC
Kind of experiment: Potency index, ratio of IC50 for NTS to IC50 for test compound for inhibition of full length DUSP5 (unknown origin) assessed as reduction in de-phosphorylation of GST-tagged recombinant phosphorylated ERK2 incubated for 15 mins by SDS-PAGE based immunoblot assay.

Experiment [2] has as its system T2, Dual specificity protein phosphatase 5 (Homo sapiens), Q16690 [C263S].
T2 sequence (whole entry): T1 sequence (whole entry) with C263S
Kind of experiment: Binding affinity to N-terminal hexa-histidine-tagged and 15N-labeled DUSP5 C263S mutant (unknown origin) expressed in Escherichia coli BL21 (DE3) at 500 uM by 2D 1H-15N HSQC NMR assay.

Experiment [3] addresses T3, Tyrosine-protein phosphatase non-receptor type 1 (Homo sapiens, UniProt P18031).
T3 sequence (P18031 whole entry): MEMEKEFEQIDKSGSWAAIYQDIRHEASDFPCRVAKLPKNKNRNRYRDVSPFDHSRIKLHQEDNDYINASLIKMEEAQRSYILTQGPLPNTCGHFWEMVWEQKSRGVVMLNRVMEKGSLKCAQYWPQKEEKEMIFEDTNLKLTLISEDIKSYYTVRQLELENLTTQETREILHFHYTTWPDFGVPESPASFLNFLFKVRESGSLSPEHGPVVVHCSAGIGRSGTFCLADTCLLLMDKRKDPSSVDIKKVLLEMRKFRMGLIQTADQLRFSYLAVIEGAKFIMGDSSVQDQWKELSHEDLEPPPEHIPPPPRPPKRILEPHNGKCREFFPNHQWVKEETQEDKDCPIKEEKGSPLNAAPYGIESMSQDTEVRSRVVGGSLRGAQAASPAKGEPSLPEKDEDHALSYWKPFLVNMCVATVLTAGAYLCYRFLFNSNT
Kind of experiment: Inhibition of PTPN1 (unknown origin) using PNPP substrate incubated for 15 mins relative to control.

Positions count from the first letter of the chain named. Activity calls are given as the source filed them. The calls are words filed in the database; no cut-off is given here.

Regarding `O=S(=O)([O-])c1cc(O)c2c(S(=O)(=O)[O-])cccc2c1.[Na+].[Na+]`, the Ratio IC50 in experiment [1] came out at 1000. Moreover, the outcome in experiment [2] was Active. Also, the IC50 entry in experiment [3] is listed as “Not Active”.
